# Assay results published in US20090156657A1, “ANTI-INFLAMMATORY COMPOSITION” (Ajinomoto Co., Inc., priority 2006, published 2009).
# Columns and labels:
# [1] = system: U-937 monocyte cells / HAEC; test: Monocyte (U-937) adhesion to HAEC cells; assay type: cell-based, human; details: HAEC pre-incubated 5 or 10 μM 24 h, 25 mM glucose 4 h; FIG. 5
# Experimental: HAEC cells proliferated to confluence in a 24 well microplate were pre-incubated with CS and FS (5 or 10 μM each) for 24 hours and stimulated with 25 mM glucose for 4 hours. The cell layer was washed with Hanks solution, and then a suspension (1×10^6/mL, 200 μL) of U-937 monocyte cells (purchased from ATCC) was added, and the mixture was incubated at 37° C. for 30 minutes. After washing again, the cells were fixed with 1% para-formaldehyde and the number of U-937 cells attached onto HAEC was counted under a microscope (20 fields). The experiment was performed 3 times and the results are shown as an average value thereof. An experiment using fluorescence-labeled U-937 cells was also performed. To be specific, U-937 cells were incubated (37° C., 1 hour) in the presence of 10 μM 2′,7′-bis(2-carboxyethyl)-5(6)-carboxyfluorescein acetoxymethylester (BCECF-AM, Molecular Probes) and washed by centrifugation. Fluorescence-labeled U-937 cells (1×10^6/mL) were added to HAEC cells, and the mixture was incubated at 37° C. for 1 hour. The floating U-937 cells were removed, the plate was washed with PBS buffer and treated with 1% Triton X for 2 hours. The fluorescence amount of the attached cells was quantified (Ex. 503 nm, Em. 525 nm) using a fluorescence plate reader (Bio-Rad, Fluoromark).
# IL-1β mRNA = test: IBD model mouse: IL-1β mRNA in large intestine tissue (realtime PCR); assay type: in vivo; details: IBD model mice, vs Control group, GAPDH internal standard; FIG. 15
# From the text: (§1) At the end of the test described in Example 10, the large intestine (caecum—anus) was cut into about 1 cm pieces from the center to the anus side to give 3 sections in total. One of them was fixed with 10% formalin solution and two were frozen in liquid nitrogen. The large intestine fixed with formalin was embedded in paraffin, and sliced to give transversely sectioned specimens. The specimens were stained by a PAS (Periodic acid Schiff) staining method, and histopathological images were observed. On the other hand, total RNA was extracted from the frozen large intestine tissue with ISOGEN (NIPPON GENE CO., LTD.) Total RNA (2 μg) was subjected to a reverse transcription reaction using a SYBR ExScript™ RT-PCR kit (TaKaRa) and, using this as a template, quantitative realtime PCR was performed using IL-1β, TNF-α and GAPDH. The primers used for the analysis were as follows.
# (§2) Template DNA (2 μl), SYBR Premix Ex Taq™ (TaKaRa, 10 μl), ROX Reference Dye (0.4 μl), 100 μM forward primer (0.04 μl), 100 μM reverse primer (0.04 μl) and sterile water (7.52 μl) were mixed on ice and, using Applied Biosystems 7900HT Fast realtime PCR system, the mixture was heated at 95° C. for 10 seconds, followed by 40 cycles of 95° C., 5 seconds and 60° C., 34 seconds, whereby the DNA was amplified. Using GAPDH as the internal standard, IL-1β and TNF-α expression levels were evaluated.
# [2] = system: large intestine tissue of IBD model mice; test: IBD model mouse: large intestine histopathology (PAS staining); assay type: in vivo; details: vs Control group, FIG. 14
# From the text: as §1
# TNF-α mRNA = test: IBD model mouse: TNF-α mRNA in large intestine tissue (realtime PCR); assay type: in vivo; details: IBD model mice, vs Control group, GAPDH internal standard; FIG. 15
# From the text: as §1, §2
# MCP-1 = MCP-1 secretion into medium of HAEC (immunoassay); assay type: cell-based, human; details: 0.1-10 μM 24 h, 25 mM glucose 4 h, FIG. 4B
# Experimental: HAEC cells proliferated to confluence in a 96 well microplate were pre-incubated with 0.1-10 μM serotonin derivative for 24 hours, and stimulated with 25 mM glucose for 4 hours. The cell layer was washed with Hanks solution, and then anti-VCAM-1 monoclonal antibody (Becton Dickinson) was added and the cells were incubated at 37° C. for 1 hour. After washing, the cells were incubated with secondary antibody (peroxidase-labeled anti-mouse IgG goat F(ab′)2 fragment; Cappel) for 1 hour. A color development substrate (o-phenylenediamine dihydrochloride) was added and, about 30 minutes later (room temperature), the absorbance (492 nm) of each well was quantified with a microplate reader. The MCP-1 concentration of the medium was quantified with Human MCP-1 Immunoassay Kit (BioSource International).
# blood NOx = test: IBD model mouse: blood NOx concentration; assay type: in vivo; details: IBD model mice, diet 3 weeks, vs Control group; FIG. 13
# Experimental: By the activation of leukocytes in an inflammatory response, a large amount of NO is produced by the cells, and the blood concentration of NOx, a metabolite, increases. It is known that blood NOx concentration becomes one index of inflammatory response in living organisms due to this mechanism (Yuka Ikenoue et al., International Immunopharmacology 5 (2005) 993-1006). The NOx concentration of the blood obtained in Example 10 was measured using an “Nitric Oxide Quantitation Kit (ACTIVE MOTIF)”.
# [3] = system: IBD model mice (IL-10 deficient cell-transplanted SCID mice); test: Inflammatory bowel disease (IBD) model mouse: large intestine and blood cell counts; assay type: in vivo; details: diet 3 weeks, vs Control group
# From the text: Immunopharmacol., 5, 993-1006 (2005)).
# 4 days before IL-10 deficient cell transplantation, total 40 SCID mice (7-week-old, were divided into the following 4 groups 1) to 4) (10 mice in each group) and acclimation to a control diet was simultaneously started. Immediately after cell transfer, the feed was changed to the test diet shown in Table 4, and free ingestion was allowed for 3 weeks. The safflower seed extract powder was the same as that in Example 8, and contained 50 wt % of γ-cyclodextrin. N-Feruloylserotonin (FS) was synthesized according to the method of Experimental Example 1. During the test diet ingestion period, the body weight, the amount of ingested feed and the amount of water drunk were measured 3 times a week to monitor the onset of the disease.
# 1) Normal group (normal SCID mice×control diet) 2) Control group (IL-10 deficient cell-transplanted SCID mice×control diet) 3) SSE group (IL-10 deficient cell-transplanted SCID mice×SSE diet*) 4) FS group (IL-10 deficient cell-transplanted SCID mice×FS diet**) *containing FS and p-coumaroyl serotonin (CS) at 0.10 and 0.13 wt %, respectively (based on aglycone) (total serotonin derivative content=[…]) **containing 0.4 wt % of FS aglycone
# After the completion of the test diet ingestion period, blood samples were collected under anesthesia, and the length of the isolated large intestine (appendix—anus) and the weight thereof (after washing the contents) were measured. Using the obtained data, t-test was first conducted between the Normal group and the Control group and, after confirmation of the effectiveness of the test, variance analyses were performed between the Control group and each of SSE and FS groups, and the effect of the test substance was compared by Dunnett-test.
compound,measurement,setting,value
"COc1cc(/C=C/C(=O)NCCc2c[nH]c3ccc(O)cc23)ccc1O [FS, N-feruloyl serotonin]",number of U-937 cells attached onto HAEC (cell count),[1],decreased the number of attached cells in a serotonin derivative dose-dependent manner
same,mRNA expression level of IL-1β in large intestine tissue,IL-1β mRNA,significant decrease
same,number of normal goblet cells,[2],increased number of normal goblet cells
same,thickening of the large intestine mucosal epithelium,[2],suppressed thickening
same,mRNA expression level of TNF-α in large intestine tissue,TNF-α mRNA,tendency toward decrease
same,MCP-1 secretion into the medium,MCP-1,suppressed the induction of their expressions in a dose-dependent manner
same,blood NOx concentration,blood NOx,tendency toward decrease
same,large intestine weight,[3]; FIG. 11B,significantly lower values
same,large intestine weight per unit intestine length,[3]; FIG. 11C,significantly lower values
same,platelet count,[3]; FIG. 12B,significantly lower
same,leukocyte count,"[3]; not statistically significant, FIG. 12A",tendency toward lower values
same,neutrophil count,"[3]; not statistically significant, FIG. 12C",tendency toward lower values
same,monocyte count,"[3]; not statistically significant, FIG. 12D",tendency toward lower values
